# Where “and” joins values, the source holds several entries; their conditions need not be identical. Equal values may be shown once. Non-standard residues stand in square brackets, D forms with d. No end group written: not given here. *: point of attachment. Biotin = O=C1N[C@H]2[C@H](CS[C@H]2CCCCC(=O)*)N1; pGlu = O=C1CC[C@@H](C(=O)O)N1
# What was measured:
# GnRH = details: cited from earlier work; for biological effect: peptide conjugated to a carrier protein (Meloen et al., 1994; Oonk et al., 1998); for immunogenicity: peptide conjugated to a carrier protein, resulting in GnRH-neutralizing antibodies (Meloen et al., 1994; Oonk et al., 1998)
# GnRH-specific B cells [1] = assay: Inhibition of GnRH-tetramer staining of specific B cells by pre-incubation with unlabeled GnRH; type: cell-based, mice
# Method: FIG. 3A: Unlabeled GnRH or Gastrin is able to inhibit the peptide-tetrameric molecule staining of the specific B cells. […] Splenocytes were pre-incubated with unlabeled GnRH or Gastrin, followed by incubation with labeled tetramers and anti-CD19 and anti-CD3 antibodies. Three doses of unlabeled antigens were used: 2 mM, 20 μM and 0.2 μM.
# Lymphocytes were preincubated with unlabeled peptide followed by incubation with labeled tetramers, CD19 and CD3e antibodies.
# GnRH-specific B cells [2] = assay: Staining of specific B cells with tetramers made from C-term, N-term or middle biotinylated GnRH; type: cell-based, mice; details: middle- or C-terminally biotinylated GnRH (FIG. 3B)
# Method: FIG. 3B: Specific B cells are recognized only by C-term tetramer. Peptide-tetrameric molecules made with different biotinylated GnRH: C-term, N-term, and middle biotinylated peptides.
# Tetrameric molecules were produced by mixing equal volumes of C-biotinylated, middle biotinylated or N-biotinylated GnRH at 200 μM (Pepscan Systems) with R-phycoerythrin (PE)-labeled neutravidin at 3.3 μM (PE-NA, Molecular Probes, Eugene, Oreg.), or allophycocyanin (APC)-labeled streptavidin at 6.1 μM (APC-SA, Molecular Probes). Each mixture was incubated at 4° C. for at least 12 hours. Then, tetramers were separated from non-complexed peptide by gel filtration using Bio-Gel P-30 spin columns (Bio-Rad, Hercules, Calif.).
# As a further specificity test, we produced tetramers using peptides that were N-, middle-, or C-terminally labeled.
# hCG-specific B cells = assay: Double-tetramer (PE/APC hCG-tetramer) flow cytometry of rat lymphocytes after immunization with CTP-hCG; type: in vivo; details: rat spleen lymphocytes, days 10 to 12 after one i.p. immunization; hCG-tetramer double-staining; one value per rat (nos. 1-3)
# Method: Six eight-week-old rats were used and were treated according to the ethical guidelines of our institutions. Rats (nos. 1, 2, and 3) were immunized intraperitoneally on day 0 with 100 μg C-Terminal Peptide (CTP), which comprises amino acid position 109-145 of hCG, coupled with 300 μg KLH, in Complete Freunds Adjuvant (CFA). The accession number of hCG is p01233, the Swiss prot. entry name is CGHB_HUMAN.
# Control rats (nos. 4, 5, and 6) were immunized with KLH in CFA. On days 10 to 12, the animals were sacrificed and spleens were harvested. All animal experiments were performed with permission from the local ethical committee (DEC).
# Cell suspensions of splenocytes were obtained by mechanical disruption of the spleens. Lymphocytes were collected using a Ficoll gradient. The resulting single-cell suspensions were stained with hCG-tetramers at optimal dilution. Staining was conducted at 4° C. in two steps. First, cells were stained with the PE-labeled tetramer of hCG for one hour, using the empirically determined optimal concentration. Cells were then washed three times with FACS buffer. Next, cells were stained with the APC-labeled tetramer of hCG and washed again. […]
# Lymphocytes were stained with hCG-tetramers. […] Only […] detected as a responder to the immunization based on specific B-cell responses.
substance,measurement,setting,value
pEHWSYGLRPGQHWSYGLRPGC ([pGlu]HWSYGLRPGQHWSYGLRPGC) [GnRH tandem],biological effect,GnRH,full biological effect in all treated animals
same,immunogenicity,GnRH,highly immunogenic
"Unlabeled GnRH: Gonadotrophin-releasing hormone, a decapeptide, used unlabeled as competitor of tetramer staining (QHWSYGLRPG; ends and bridges not checked; UniProt P01148 24-33, looked up)","inhibition of tetramer staining, dose dependence","GnRH-specific B cells [1]; lymphocytes preincubated with unlabeled peptide, then labeled tetramers (FIG. 3A)",inhibited by inclusion of unlabeled peptide in a dose-dependent manner
same,inhibition of peptide-tetramer staining of specific B cells,"GnRH-specific B cells [1]; splenocytes pre-incubated with unlabeled antigen, higher dose of 2 mM, 20 μM and 0.2 μM",nearly abolished
"N-term: tetramer of N-biotinylated GnRH with PE-labeled neutravidin or APC-labeled streptavidin (Biotin-QHWSYGLRPG; ends and bridges not checked; also: tetramer with PE-labeled neutravidin or APC-labeled streptavidin; UniProt P01148 24-33, looked up)",detection of specific B cells by the tetramer,GnRH-specific B cells [2],Only the C-term peptide was able to detect the specific cells
dimerized form of pEHWSYkLRPGQHWSYkLRPGC [TDK],biological effect,GnRH,full biological effect in all treated animals
same,immunogenicity,GnRH,highly immunogenic
"C-term biotinylated GnRH tetrameric: C-biotinylated GnRH complexed with PE-labeled neutravidin or APC-labeled streptavidin (QHWSYGLRPG-biotin; ends and bridges not checked; also: tetramer with PE-labeled neutravidin or APC-labeled streptavidin; UniProt P01148 24-33, looked up)",detection of specific B cells by the tetramer,GnRH-specific B cells [2],able to detect the specific B cells
"CTP-KLH/CFA: C-Terminal Peptide, amino acid position 109-145 of hCG, coupled with KLH, in Complete Freunds Adjuvant (TCDDPRFQDSSSSKAPPPSLPSPSRLPGPSDTPILPQ; also: coupled with KLH, in Complete Freunds Adjuvant; UniProt P0DN86 129-165, looked up, fragment)",Pos. B cells per 1 × 10^6 cells in Facs,hCG-specific B cells,61 per 1 × 10^6 cells and 47 per 1 × 10^6 cells and 136 per 1 × 10^6 cells
"middle biotinylated peptides: tetramer of middle biotinylated GnRH with PE-labeled neutravidin or APC-labeled streptavidin (QHWSYGLRPG; ends and bridges not checked; also: middle biotinylated, tetramer with PE-labeled neutravidin or APC-labeled streptavidin; UniProt P01148 24-33, looked up)",detection of specific B cells by the tetramer,GnRH-specific B cells [2],Only the C-term peptide was able to detect the specific cells

# Source: patent US20070065428A1, “Early B-cell detection for selecting vaccines” (Pepscan Systems B.V., priority 2004, published 2007)
